Assay results taken from article PMC5761851, “Application of a phenotypic drug discovery strategy to identify biological and chemical starting points for inhibition of TSLP production in lung epithelial cells” (PLoS ONE, 2018).

Key:
Test in all cases: kinase selectivity panel
Assay type in all cases: biochemical
Aurora-A = molecular target: T1, Aurora-A (Homo sapiens, UniProt O14965); settings: read-out: percentage of control activity (POC), Aurora-A
T1 construct: purchased Eurofins Pharma Discovery Services (KinaseProfiler; Cerep BioPrint panel)
T1 sequence (O14965 1-403): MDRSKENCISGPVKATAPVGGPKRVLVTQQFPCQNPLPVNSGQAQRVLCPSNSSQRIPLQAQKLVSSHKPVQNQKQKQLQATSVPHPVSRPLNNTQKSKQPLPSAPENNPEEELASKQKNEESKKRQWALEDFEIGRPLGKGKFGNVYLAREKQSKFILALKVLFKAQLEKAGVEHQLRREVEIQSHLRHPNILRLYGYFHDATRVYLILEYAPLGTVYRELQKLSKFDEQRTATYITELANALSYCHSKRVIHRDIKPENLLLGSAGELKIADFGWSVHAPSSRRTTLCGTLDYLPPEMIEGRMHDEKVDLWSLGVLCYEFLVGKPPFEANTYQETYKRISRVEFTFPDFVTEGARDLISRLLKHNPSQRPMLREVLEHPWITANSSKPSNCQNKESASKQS
Summary of the method: (§1)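 Tested at 10 μM in duplicate within a panel of 125 representative kinases. For selected activities, IC50 values were then determined from 9 concentrations, each run in duplicate.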

JAK2 = molecular target: T2, JAK2 (Homo sapiens, UniProt O60674); settings: read-out: percentage of control activity (POC), JAK2
T2 construct: purchased Eurofins Pharma Discovery Services (KinaseProfiler; Cerep BioPrint panel)
T2 sequence (O60674 whole entry): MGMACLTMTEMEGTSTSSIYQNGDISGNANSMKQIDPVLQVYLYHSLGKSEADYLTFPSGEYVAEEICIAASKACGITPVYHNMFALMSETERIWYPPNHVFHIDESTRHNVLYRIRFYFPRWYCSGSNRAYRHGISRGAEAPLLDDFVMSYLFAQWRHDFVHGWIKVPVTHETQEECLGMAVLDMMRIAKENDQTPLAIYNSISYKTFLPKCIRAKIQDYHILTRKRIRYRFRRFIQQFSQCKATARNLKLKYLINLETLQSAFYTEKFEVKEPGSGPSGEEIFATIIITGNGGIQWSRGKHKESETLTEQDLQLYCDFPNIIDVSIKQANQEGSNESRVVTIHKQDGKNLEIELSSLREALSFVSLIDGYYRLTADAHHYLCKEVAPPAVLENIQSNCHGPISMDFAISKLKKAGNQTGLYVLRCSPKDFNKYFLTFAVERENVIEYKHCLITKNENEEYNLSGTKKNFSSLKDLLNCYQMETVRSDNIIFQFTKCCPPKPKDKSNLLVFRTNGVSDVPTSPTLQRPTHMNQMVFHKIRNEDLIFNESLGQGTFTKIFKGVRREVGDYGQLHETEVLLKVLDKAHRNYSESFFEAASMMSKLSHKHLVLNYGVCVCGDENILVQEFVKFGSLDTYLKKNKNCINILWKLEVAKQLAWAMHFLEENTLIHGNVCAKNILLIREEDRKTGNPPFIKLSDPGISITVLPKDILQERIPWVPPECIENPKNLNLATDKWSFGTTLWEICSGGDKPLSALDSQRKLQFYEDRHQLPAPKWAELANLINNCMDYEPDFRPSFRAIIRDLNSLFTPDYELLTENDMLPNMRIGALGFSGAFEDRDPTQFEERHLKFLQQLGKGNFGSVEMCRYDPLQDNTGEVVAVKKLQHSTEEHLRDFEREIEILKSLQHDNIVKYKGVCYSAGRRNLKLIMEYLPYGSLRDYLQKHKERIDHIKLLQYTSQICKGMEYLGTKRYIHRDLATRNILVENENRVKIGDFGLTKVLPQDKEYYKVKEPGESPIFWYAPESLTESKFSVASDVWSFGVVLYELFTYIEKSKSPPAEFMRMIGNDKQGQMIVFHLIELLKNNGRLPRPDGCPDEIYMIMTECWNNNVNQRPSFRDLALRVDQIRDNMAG
Summary of the method: as §1

MLK1 = molecular target: T3, MLK1 (Homo sapiens, UniProt P80192); settings: read-out: percentage of control activity (POC), MLK1
T3 construct: purchased Eurofins Pharma Discovery Services (KinaseProfiler; Cerep BioPrint panel)
Summary of the method: as §1

MuSK = molecular target: T4, MuSK (Homo sapiens, UniProt O15146); settings: read-out: percentage of control activity (POC), MuSK
T4 construct: purchased Eurofins Pharma Discovery Services (KinaseProfiler; Cerep BioPrint panel)
T4 sequence (O15146 24-869): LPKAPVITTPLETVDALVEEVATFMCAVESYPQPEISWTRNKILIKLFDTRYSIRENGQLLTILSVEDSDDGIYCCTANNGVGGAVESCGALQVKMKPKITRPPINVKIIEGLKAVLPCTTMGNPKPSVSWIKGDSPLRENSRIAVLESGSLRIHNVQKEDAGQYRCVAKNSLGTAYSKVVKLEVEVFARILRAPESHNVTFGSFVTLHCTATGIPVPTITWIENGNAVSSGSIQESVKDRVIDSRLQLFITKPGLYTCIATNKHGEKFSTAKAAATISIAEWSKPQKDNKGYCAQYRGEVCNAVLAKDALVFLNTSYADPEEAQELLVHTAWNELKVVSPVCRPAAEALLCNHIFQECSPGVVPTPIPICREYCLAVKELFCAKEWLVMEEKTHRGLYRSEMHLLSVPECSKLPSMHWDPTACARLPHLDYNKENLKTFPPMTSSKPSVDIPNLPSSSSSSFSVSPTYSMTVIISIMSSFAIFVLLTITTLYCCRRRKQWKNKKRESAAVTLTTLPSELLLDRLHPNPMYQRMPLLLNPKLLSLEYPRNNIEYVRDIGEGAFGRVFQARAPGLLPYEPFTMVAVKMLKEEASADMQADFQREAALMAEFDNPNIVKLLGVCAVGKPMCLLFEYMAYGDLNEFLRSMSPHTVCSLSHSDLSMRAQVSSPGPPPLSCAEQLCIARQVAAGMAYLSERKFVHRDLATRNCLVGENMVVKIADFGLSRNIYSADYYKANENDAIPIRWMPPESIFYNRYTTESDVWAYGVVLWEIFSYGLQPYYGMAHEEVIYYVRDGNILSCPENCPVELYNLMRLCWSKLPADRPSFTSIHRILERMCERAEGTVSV
Summary of the method: as §1

ROCK-II = molecular target: T5, ROCK-II (Homo sapiens, UniProt O75116); settings: read-out: percentage of control activity (POC), ROCK-II
T5 construct: purchased Eurofins Pharma Discovery Services (KinaseProfiler; Cerep BioPrint panel)
T5 sequence (O75116 whole entry): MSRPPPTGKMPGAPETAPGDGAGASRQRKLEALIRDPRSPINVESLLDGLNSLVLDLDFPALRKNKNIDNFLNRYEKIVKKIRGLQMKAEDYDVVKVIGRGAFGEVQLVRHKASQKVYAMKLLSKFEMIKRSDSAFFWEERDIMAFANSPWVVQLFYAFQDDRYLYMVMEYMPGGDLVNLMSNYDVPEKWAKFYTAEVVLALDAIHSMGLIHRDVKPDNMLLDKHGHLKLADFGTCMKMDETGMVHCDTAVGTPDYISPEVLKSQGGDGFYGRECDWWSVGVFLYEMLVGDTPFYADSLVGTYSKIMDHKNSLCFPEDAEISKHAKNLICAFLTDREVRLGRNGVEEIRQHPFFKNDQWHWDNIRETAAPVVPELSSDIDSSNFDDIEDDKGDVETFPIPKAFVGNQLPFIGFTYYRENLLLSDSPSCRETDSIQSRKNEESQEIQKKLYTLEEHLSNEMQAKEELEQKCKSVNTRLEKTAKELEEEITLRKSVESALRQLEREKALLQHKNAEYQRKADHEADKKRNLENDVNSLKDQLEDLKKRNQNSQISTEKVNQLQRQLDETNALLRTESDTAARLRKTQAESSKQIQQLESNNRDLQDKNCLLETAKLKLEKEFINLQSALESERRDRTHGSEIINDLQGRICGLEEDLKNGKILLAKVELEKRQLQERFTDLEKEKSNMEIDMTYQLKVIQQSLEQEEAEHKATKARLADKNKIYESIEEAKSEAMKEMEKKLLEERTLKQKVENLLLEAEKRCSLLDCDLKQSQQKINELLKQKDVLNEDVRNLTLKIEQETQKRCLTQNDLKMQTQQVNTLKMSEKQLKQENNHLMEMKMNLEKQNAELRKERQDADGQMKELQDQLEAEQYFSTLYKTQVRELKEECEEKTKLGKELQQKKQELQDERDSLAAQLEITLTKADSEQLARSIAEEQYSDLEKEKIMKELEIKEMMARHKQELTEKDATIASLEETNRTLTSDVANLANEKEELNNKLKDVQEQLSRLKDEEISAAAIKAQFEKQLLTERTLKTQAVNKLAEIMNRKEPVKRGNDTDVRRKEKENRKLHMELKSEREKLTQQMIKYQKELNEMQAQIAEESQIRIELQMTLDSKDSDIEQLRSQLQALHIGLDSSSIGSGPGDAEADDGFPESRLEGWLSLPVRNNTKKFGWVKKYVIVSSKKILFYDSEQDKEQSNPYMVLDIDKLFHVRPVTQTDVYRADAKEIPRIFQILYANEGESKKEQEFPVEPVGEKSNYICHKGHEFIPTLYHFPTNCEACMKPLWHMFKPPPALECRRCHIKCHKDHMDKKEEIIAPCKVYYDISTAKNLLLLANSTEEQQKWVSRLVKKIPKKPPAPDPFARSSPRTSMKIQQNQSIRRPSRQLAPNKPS
Summary of the method: as §1

Rse = molecular target: T6, Rse (Homo sapiens, UniProt Q06418); settings: read-out: percentage of control activity (POC), Rse
T6 construct: purchased Eurofins Pharma Discovery Services (KinaseProfiler; Cerep BioPrint panel)
T6 sequence (Q06418 41-890): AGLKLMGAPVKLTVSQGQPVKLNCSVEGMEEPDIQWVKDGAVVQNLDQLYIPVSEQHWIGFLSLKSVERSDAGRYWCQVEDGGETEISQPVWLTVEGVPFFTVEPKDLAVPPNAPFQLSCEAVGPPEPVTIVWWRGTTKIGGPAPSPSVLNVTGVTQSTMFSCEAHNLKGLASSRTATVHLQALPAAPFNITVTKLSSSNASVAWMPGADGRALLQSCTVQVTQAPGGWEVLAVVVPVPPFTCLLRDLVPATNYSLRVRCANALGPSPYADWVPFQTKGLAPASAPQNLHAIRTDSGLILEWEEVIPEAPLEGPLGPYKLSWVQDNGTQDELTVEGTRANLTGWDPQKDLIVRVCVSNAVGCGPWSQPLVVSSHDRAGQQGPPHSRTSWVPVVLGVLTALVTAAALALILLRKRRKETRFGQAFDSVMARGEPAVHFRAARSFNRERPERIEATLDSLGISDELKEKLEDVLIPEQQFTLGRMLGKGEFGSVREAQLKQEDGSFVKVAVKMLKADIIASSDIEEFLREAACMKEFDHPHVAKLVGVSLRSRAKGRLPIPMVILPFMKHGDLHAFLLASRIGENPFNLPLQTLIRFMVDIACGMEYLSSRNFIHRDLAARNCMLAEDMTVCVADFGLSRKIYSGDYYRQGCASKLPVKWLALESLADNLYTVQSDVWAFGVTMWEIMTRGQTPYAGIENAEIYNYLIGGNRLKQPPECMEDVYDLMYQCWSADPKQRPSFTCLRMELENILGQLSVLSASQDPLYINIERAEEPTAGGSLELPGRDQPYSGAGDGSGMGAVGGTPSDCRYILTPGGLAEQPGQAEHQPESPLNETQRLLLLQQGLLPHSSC
Summary of the method: as §1

Rsk1 = molecular target: T7, Rsk1 (Homo sapiens, UniProt Q15418); settings: read-out: percentage of control activity (POC), Rsk1
T7 construct: purchased Eurofins Pharma Discovery Services (KinaseProfiler; Cerep BioPrint panel)
T7 sequence (Q15418 whole entry): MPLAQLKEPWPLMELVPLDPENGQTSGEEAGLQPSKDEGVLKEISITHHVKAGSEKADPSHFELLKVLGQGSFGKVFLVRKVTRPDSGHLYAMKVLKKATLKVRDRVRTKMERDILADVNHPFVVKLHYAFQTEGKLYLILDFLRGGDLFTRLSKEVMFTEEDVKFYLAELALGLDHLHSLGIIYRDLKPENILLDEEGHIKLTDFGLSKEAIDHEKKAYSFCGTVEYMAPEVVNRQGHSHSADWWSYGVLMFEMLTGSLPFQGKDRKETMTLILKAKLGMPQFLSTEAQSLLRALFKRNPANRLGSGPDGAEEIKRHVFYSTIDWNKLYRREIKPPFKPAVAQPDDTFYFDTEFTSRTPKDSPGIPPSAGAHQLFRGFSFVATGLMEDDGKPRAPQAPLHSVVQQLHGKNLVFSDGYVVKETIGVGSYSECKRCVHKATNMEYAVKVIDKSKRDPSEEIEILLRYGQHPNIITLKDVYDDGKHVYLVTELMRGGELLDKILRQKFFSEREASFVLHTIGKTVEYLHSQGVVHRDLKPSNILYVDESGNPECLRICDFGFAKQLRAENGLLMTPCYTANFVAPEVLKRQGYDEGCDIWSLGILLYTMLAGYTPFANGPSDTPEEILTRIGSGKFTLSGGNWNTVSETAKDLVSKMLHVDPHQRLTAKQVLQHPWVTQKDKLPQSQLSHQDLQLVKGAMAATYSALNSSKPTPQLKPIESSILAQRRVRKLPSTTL
Summary of the method: as §1

Tie2 = molecular target: T8, Tie2 (Homo sapiens, UniProt Q02763); settings: for remaining activity at 10 µM: read-out: percentage of control activity (POC), Tie2
T8 construct: purchased Eurofins Pharma Discovery Services (KinaseProfiler; Cerep BioPrint panel)
T8 sequence (Q02763 23-1124): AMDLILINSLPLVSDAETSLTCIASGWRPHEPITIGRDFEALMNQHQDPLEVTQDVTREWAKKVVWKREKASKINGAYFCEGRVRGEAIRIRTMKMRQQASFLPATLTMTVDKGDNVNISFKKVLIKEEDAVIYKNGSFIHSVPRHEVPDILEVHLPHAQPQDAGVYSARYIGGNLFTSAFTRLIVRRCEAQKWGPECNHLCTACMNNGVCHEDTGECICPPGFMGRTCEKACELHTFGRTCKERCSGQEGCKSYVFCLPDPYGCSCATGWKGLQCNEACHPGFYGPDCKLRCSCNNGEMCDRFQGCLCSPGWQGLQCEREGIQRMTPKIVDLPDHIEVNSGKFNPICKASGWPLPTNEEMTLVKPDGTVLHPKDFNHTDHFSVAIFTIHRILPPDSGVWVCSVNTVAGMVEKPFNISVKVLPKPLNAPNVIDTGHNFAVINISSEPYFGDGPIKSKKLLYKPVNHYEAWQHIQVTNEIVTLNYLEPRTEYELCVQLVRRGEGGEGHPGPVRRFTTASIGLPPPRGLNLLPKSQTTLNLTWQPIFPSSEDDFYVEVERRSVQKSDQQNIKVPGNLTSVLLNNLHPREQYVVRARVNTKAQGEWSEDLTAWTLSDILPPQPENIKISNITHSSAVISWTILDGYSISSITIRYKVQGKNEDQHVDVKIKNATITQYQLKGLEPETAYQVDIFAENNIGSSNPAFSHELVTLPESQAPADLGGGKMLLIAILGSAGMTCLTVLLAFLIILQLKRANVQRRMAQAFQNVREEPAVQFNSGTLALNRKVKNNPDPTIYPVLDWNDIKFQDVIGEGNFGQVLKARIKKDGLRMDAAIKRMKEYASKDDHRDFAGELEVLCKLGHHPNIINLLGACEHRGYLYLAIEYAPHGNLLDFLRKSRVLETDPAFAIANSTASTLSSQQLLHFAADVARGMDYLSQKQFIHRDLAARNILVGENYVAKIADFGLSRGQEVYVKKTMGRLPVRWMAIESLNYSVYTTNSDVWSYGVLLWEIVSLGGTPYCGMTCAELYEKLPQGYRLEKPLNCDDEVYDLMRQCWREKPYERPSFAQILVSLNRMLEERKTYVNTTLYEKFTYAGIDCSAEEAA
Summary of the method: as §1

CC(C)(C)N1CCC(c2cc(-c3ccc(F)cc3Cl)c3cc[n+]([O-])c(-c4c(Cl)cccc4Cl)c3n2)CC1 [compound 2]
remaining activity at 10 µM (Aurora-A): 112% | remaining activity at 10 µM (JAK2): 105% | remaining activity at 10 µM (MLK1): 99% | remaining activity at 10 µM (MuSK): 110% | remaining activity at 10 µM (ROCK-II): 100% | remaining activity at 10 µM (Rse): 109% | remaining activity at 10 µM (Rsk1): 104% | remaining activity at 10 µM (Tie2): 79%

Cc1ccc(C(=O)NCC2CC2)cc1-c1ccc2c(c1)NC(=O)C21CCCC1 [compound 3]
remaining activity at 10 µM (Aurora-A): 96% | remaining activity at 10 µM (JAK2): 108% | remaining activity at 10 µM (MLK1): 97% | remaining activity at 10 µM (MuSK): 106% | remaining activity at 10 µM (ROCK-II): 96% | remaining activity at 10 µM (Rse): 99% | remaining activity at 10 µM (Rsk1): 100% | remaining activity at 10 µM (Tie2): 96%

Cn1cc(-c2cccc(-c3nc(C(=O)NC4C5CC6CC4CC(O)(C6)C5)c(N)nc3N)c2)cn1 (centres unmarked) [compound 4]
remaining activity at 10 µM (Aurora-A): 89% | remaining activity at 10 µM (JAK2): 88% | remaining activity at 10 µM (MLK1): 79% | remaining activity at 10 µM (MuSK): 101% | remaining activity at 10 µM (ROCK-II): 85% | remaining activity at 10 µM (Rse): 92% | remaining activity at 10 µM (Rsk1): 87% | remaining activity at 10 µM (Tie2): 76%

CS(=O)(=O)N1CCN(c2ccc(Nc3ncc(C(N)=O)c(NC4CC4)n3)cc2)CC1 [compound 5]
remaining activity at 10 µM (Aurora-A): 2% | remaining activity at 10 µM (JAK2): -3% | remaining activity at 10 µM (MLK1): -1% | remaining activity at 10 µM (MuSK): 60% | remaining activity at 10 µM (ROCK-II): 3% | remaining activity at 10 µM (Rse): 33% | remaining activity at 10 µM (Rsk1): 1% | remaining activity at 10 µM (Tie2): 42%

COc1c(NC(=O)c2ccc(C)c(-c3nnc4c(NCC(C)(C)C)nccn34)c2)cc(C(C)(C)C)cc1NS(C)(=O)=O [compound 7, reference compound]
remaining activity at 10 µM (Aurora-A): 110% | remaining activity at 10 µM (JAK2): 104% | remaining activity at 10 µM (MLK1): 104% | remaining activity at 10 µM (MuSK): 104% | remaining activity at 10 µM (ROCK-II): 93% | remaining activity at 10 µM (Rse): 107% | remaining activity at 10 µM (Rsk1): 132% | inhibition at 10 µM (Tie2): 83% | remaining activity at 10 µM (Tie2): 27%
